The values that follow come from paper PMC7026080, “Phenotypic high-throughput screening platform identifies novel chemotypes for necroptosis inhibition” (Cell Death Discovery, 2020).

Data set [1] is described as follows: Caco-2 cell-based permeability assay. The data set is classed as in vitro ADME. Particulars: human.
Data set [2] is described as follows: Rat hepatic clearance (in vitro). Format: in vitro ADME.
The test system of data set [3] is necroptosis proteins in liver tissue. The data set can be described thus: p-MLKL/MLKL and p-RIPK3/RIPK3 immunoblot in liver tissue of SIRS mice. Format: in vivo, mouse. Particulars: compared with mTNF-α alone; 5 mg/kg i.v. The protocol: Representative blots and quantification of p-RIPK3/RIPK3 and p-MLKL/MLKL ratios in fold-change from control. Blots were normalized to endogenous β-actin.
Further details are provided as Supplementary Information.
Animal studies, injections and monitoring. Male C57BL/6J mice with 18-26 g (Charles River Laboratories International, Inc., Wilmington, MA, USA) were used at the age of 8-14 weeks. Five to seven animals were included in each experimental group. All animal experiments were carried out with the permission of local animal ethical committee in accordance with the EU Directive (2010/63/EU), Portuguese laws (DL113/2013, 2880/2015, 260/2016) and all relevant legislations. Animals received humane care in a temperature-controlled environment with a 12 h light-dark cycle and ad libitum access to pelleted chow and water, complying with the Institute’s guidelines, and as outlined in the “Guide for the Care and Use of Laboratory Animals” prepared by the National Academy of Sciences and published by the National Institutes of Health (NIH publication 86-23 revised 1985). […] Nec-1 was diluted as follows (v/v): 48% PBS 1X, 17% DMSO and 35% PEG 400. […] All injections were administered intravenously (i.v.) in 100 µL volume each.
For orientation: In western blotting, separated proteins are transferred to a membrane and probed.

A further data set concerns BV2 cells. The data set can be described thus: Necroptosis protection in BV2 cells (Z-VAD-FMK), 24 h. Format: cell-based, murine. Particulars: compounds at 10 μM, 25 μM Z-VAD-FMK. The procedure:
(§1) Necroptosis inhibition properties were further examined using two additional cellular models of regulated necrosis. First, in human adenocarcinoma HT29 cells, and then in immortalized murine microglial BV2 cells, where we co-incubated a mixture of human or murine TNF-α, Smac mimetic […], pan-caspase inhibitor Z-VAD-FMK[29] or Z-VAD-FMK alone, and tested compounds at 10 μM for 24 h. […] In parallel, preliminary data for compound liver toxicity was extrapolated using HepG2 cells.
(§2) Fig. 3 Secondary-stage cascade for hit validation and compound refinement for further studies. a Compound ability to prevent necroptosis execution in HT29 cells co-incubated with 20 ng/mL hTNF-α (T) together with 250 nM Smac mimetic BV6 (S) and […] Z-VAD-FMK (Z), and selected compounds at 10 μM for 24 h. b Selected compound ability to prevent necroptosis execution in BV2 cells co-incubated with 25 μM Z-VAD-FMK (Z) and compounds at 10 μM for 24 h. c Selected compound toxicity evaluation in HepG2 cells incubated with test compounds at 100 and 50 μM for 24 h. Data represent mean values ± SEM of three independent experiments normalized to untreated control. Cell viability was assessed using a luminescence-based readout for AK release and ATP production, and a colorimetric-based readout for LDH release and MTS metabolism. ns, not significant; *p < 0.05, ***p < 0.001.
(§3) Cell treatments and viability assays. […]

A further data set has as its system MDR1. The data set can be described thus: MDCK-MDR1 cell-based permeability assay. The data set is classed as in vitro ADME. Particulars: dog.
The subject of another data set is HT29 cells. The data set can be described thus: Necroptosis protection in HT29 cells (TNF-α + Smac mimetic + Z-VAD-FMK), 24 h. The data set is classed as cell-based, human. Particulars: compounds at 10 μM, hTNF-α + Smac mimetic + Z-VAD-FMK. The procedure:
as §1, §2, §3

Structures are written as SMILES.

In data set [1], `O=C(c1cnn(Cc2ccccc2)c1)N1CCOc2ccccc2C1` [SN-6109] gave a Papp A→B of 31 ×10⁻⁶ cm/s and a Papp B→A of 16 ×10⁻⁶ cm/s. Moreover, in data set [2], the “Rat hepatic clearance (in vitro) rate” value worked out at 87 μL/min/1E6.

Take `CN1C(=O)C(Cc2c[nH]c3ccccc23)NC1=S` (centres unmarked) [Nec-1, necrostatin-1]: in data set [3], the “p-MLKL/MLKL ratio in mouse liver tissue” value is listed as “decreased” and the “p-RIPK3/RIPK3 ratio in mouse liver tissue” value is given as “decreased”. In data set [1], the efflux ratio was determined as 0.36, the Papp A→B was 38 ×10⁻⁶ cm/s and the Papp B→A was found to be 14 ×10⁻⁶ cm/s. The “Protection from necroptosis execution in BV2 cells” value in the data set on BV2 cells is given as “complete protection against necroptosis execution”. For the same compound, the efflux ratio in the data set on MDR1 came to 0.45. Besides, in the data set on HT29 cells, the “Protection from necroptosis in HT29 cells (membrane integrity by AK and LDH release, ATP levels)” value is “completely rescued membrane integrity and ensured metabolic cell viability”.

The Papp A→B is how fast a substance crosses the layer from the apical side. The term Papp B→A denotes how fast a substance crosses the layer from the basolateral side. As usually defined, the efflux ratio is the permeability from basolateral to apical divided by that in the opposite direction, in the common usage.
